Experimental data: PubChem BioAssay AID1919005 (Molecular Pharmacology Branch, DTP, NCI, 2023)
“And” between values parts separate entries of the source, which are not always exact repeats. Equal values may be shown once.

Tested on: 855422-203-R-J1-PDC complex spheroid growth
Test: Anticancer human tumor 855422-203-R-J1-PDC patient-derived bladder carcinoma cell line growth inhibition [AhR]
Conditions: for viability, T/C: stronger effect = lower value
Source text: Multicellular complex tumor spheroid response to aryl hydrocarbon receptor antagonists in combination with a variety of drugs and investigational agents in selected tumor cell lines
The current study was undertaken to assess response to aryl hydrocarbon receptor antagonists in combination with standard-of-care drugs and investigational agents in solid tumor complex spheroid models. Complex spheroids include a stromal component modeled by human endothelial cells (HUVEC) and fibroblasts modeled by human mesenchymal stem cells (MSCs). The concentration ranges selected for each drug and investigational agent were based upon clinically achievable concentrations if the clinical Cmax of the agent was known.
Compounds. The drugs and investigational agents: BAY 2416964 (NSC825713), GNF351 (NSC835774), CH-223191 (NSC835775), CPI-455 (NSC825282), aza-TdCyd (NSC777586), decitabine (NSC127716), belinostat (NSC758774), entinostat (NSC756642), pevonedistat (NSC761192), tazemetostat (NSC777109), talazoparib (NSC765396), olaparib (NSC753686), selinexor (NSC780203), nedisertib (M3814, NSC802822), bortezomib (NSC756655), venetoclax (NSC766270), doxorubicin (NSC123127), elimusertib (BAY189344, NSC800525), ceralasertib (AZD6738, NSC777638), TAK-243 (NSC785004), alisertib (NSC759677), etoposide (NSC141540), topotecan (NSC609699), eribulin (NSC707389), gemcitabine (NSC613327), carboplatin (NSC241240), cisplatin (NSC119875), and SN-38 (NSC673596) were obtained from the National Cancer Institute (NCI) Developmental Therapeutics Program Chemical Repository (32). The FDA-approved anticancer drug set is available from the Developmental Therapeutics Program at https://dtp.cancer.gov/organization/dscb/obtaining/available plates.htm. […] The stock solutions were prepared in dimethyl sulfoxide (DMSO, Sigma-Aldrich, St. Louis, MO, cat. D2650), except for the platinum compounds which were prepared in saline (Quality Biological, Gaithersburg, MD, cat. 114-055-101), at 800-fold the tested concentration and stored at -70 degrees C prior to their use. All drugs and investigational agents were tested over a range starting from a high concentration at or near the clinical Cmax and decreasing in half-log increments. If the clinical Cmax for an agent had not been determined, the highest concentration tested was 10 microM (Table 1).
Cell Culture. All cells were maintained in an incubator at 37 degrees C and 5% CO2 with 95% humidity. The PDC lines were cultured according to standard operating procedures established by the NCI PDMR (https://pdmr.cancer.gov). Briefly, all PDCs were thawed and cultured in Matrigel-coated flasks prepared with a working solution of 1X Ham's F-12 nutrient mix, without supplementation (Invitrogen, Waltham, MA, cat. 11765054), 100 U/mL penicillin-streptomycin (Invitrogen, cat. 15140122), and 2.5% Matrigel (Corning Inc., Corning, NY, cat. 354248) for the first three passages. All PDCs were cultured in complete DMEM/F-12 media containing advanced DMEM/F-12 (Invitrogen, cat. 12634028), 4.9% defined fetal bovine serum, heat inactivated (HyClone Laboratories Inc., Logan, UT, cat. SH30070.03HI), 389 ng/mL hydrocortisone (Sigma-Aldrich, cat. H4001), 9.7 ng/mL human EGF recombinant protein (Invitrogen, cat. PHG0313), 23.4 microg/mL adenine (Sigma-Aldrich, cat. A2786), 97.3 U/mL penicillin-streptomycin (Invitrogen, cat. 15140122), 1.9 mM L-glutamine (Invitrogen, cat. 25030081), and 9.7 microM Y-27632 dihydrochloride (Tocris Bioscience, Bristol, United Kingdom, cat. 1254). The PDCs were cultured in complete DMEM/F12 media without 10 microM Y-27632 dihydrochloride for at least two passages prior to the screen. The established cell lines NCI-H1341 and […] were cultured in DMEM/F-12, HEPES (Invitrogen, cat. 11330032), 5% defined fetal bovine serum (HyClone Laboratories Inc., cat. SH30070.03), ITS premix universal culture supplement [insulin (5 microg/mL), transferrin (5 microg/mL), and selenious acid (5 ng/mL)] […]
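Note: spheroids exposed to agents for seven days before readout.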
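Throughout, for viability, T/C: percent of DMSO vehicle control luminescence viability.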

IC50 (curve of compound) | Structure (SMILES) | viability, T/C (compound 0.0316 µM) | viability, T/C (compound 0.1 µM) | viability, T/C (compound 0.316 µM) | viability, T/C (compound 1 µM) | viability, T/C (compound 3.16 µM) | viability, T/C (compound 10 µM) | other results
< 0.0316 µM | COc1cccc2c1C(=O)c1c(O)c3c(c(O)c1C2=O)CC(O)(C(=O)CO)CC3OC1CC(N)C(O)C(C)O1 (centres undefined) | 19% and 41.1% and 29.2% | 13.1% and 28.8% and 16.9% | 3.14% and 7.44% and 4.25% | 0.97% and 2.58% and 1.55% | 1.22% and 1.89% and 0.79% | 1.82% and 4.62% and 3.32% | 
> 1 µM | Nc1ncn(C2CC(O)C(CO)O2)c(=O)n1 (centres undefined) | 91.6% and 97.8% and 87.2% | 87.2% and 88.3% and 87.7% | 86.9% and 90.8% and 79.8% | 83.3% and 83.5% and 78.8% |  |  | viability, T/C (compound 0.00316 µM): 94.3% and 107% and 95.8%; viability, T/C (compound 0.01 µM): 96.5% and 98.7% and 94.9%
1.77 µM and 3.95 µM and 1.95 µM | O=C(C=Cc1cccc(S(=O)(=O)Nc2ccccc2)c1)NO | 84% and 110% and 92.6% | 84.6% and 109% and 91.1% | 88.4% and 108% and 90% | 69% and 106% and 70.5% | 29.5% and 61% and 34.7% | 0.96% and 4.09% and 0.82% | 
0.267 µM and 0.917 µM and 0.327 µM | O=C(C=Cn1cnc(-c2cc(C(F)(F)F)cc(C(F)(F)F)c2)n1)NNc1cnccn1 |  |  |  |  |  |  | viability, T/C (compound 0.00949 µM): 110% and 118% and 112%; viability, T/C (compound 0.03 µM): 105% and 125% and 130%; viability, T/C (compound 0.0949 µM): 164% and 169% and 162%; viability, T/C (compound 0.3 µM): 41.3% and 95.5% and 51.4%; viability, T/C (compound 0.949 µM): 29.9% and 55.1% and 35%; viability, T/C (compound 3 µM): 20.7% and 42.1% and 27.6%
> 10 µM | O=C(c1cc(Cc2n[nH]c(=O)c3ccccc23)ccc1F)N1CCN(C(=O)C2CC2)CC1 | 99% and 105% and 111% | 112% and 105% and 129% | 111% and 99% and 105% | 105% and 98.5% and 116% | 114% and 103% and 106% | 87.1% and 93.6% and 102% | 

Further lines, the compound ahead of its results:

Structure (SMILES) | IC50 (curve of compound) | viability, T/C (compound 0.0316 µM) | viability, T/C (compound 0.1 µM) | viability, T/C (compound 0.316 µM) | viability, T/C (compound 1 µM) | viability, T/C (compound 3.16 µM) | viability, T/C (compound 10 µM) | other results
Cc1ccccc1N=Nc1ccc(NC(=O)c2ccnn2C)c(C)c1 |  |  | 98.6% [middle of 20 runs] | 98.5% [middle of 20 runs] | 101% [middle of 20 runs] | 94.4% [middle of 20 runs] | 80.9% [middle of 20 runs] | IC50 (compound alone, run of 06/14/2022): > 10 µM
Cc1cncc(-c2nc(NCCc3c[nH]c4ccccc34)c3ncn(C(C)C)c3n2)c1 |  |  | 92.2% [middle of 19 runs] |  | 86.3% [middle of 20 runs] |  |  | IC50 (compound alone, run of 06/06/2022): 5.43 µM [middle of 22 runs]
Cn1ncnc1C1c2n[nH]c(=O)c3cc(F)cc(c23)NC1c1ccc(F)cc1 (centres undefined) | > 0.1 µM | 99.4% and 102% and 95.6% | 82.4% and 101% and 98.5% |  |  |  |  | viability, T/C (compound 0.000316 µM): 98.3% and 105% and 99%; viability, T/C (compound 0.001 µM): 92.9% and 104% and 110%; viability, T/C (compound 0.00316 µM): 86.6% and 106% and 105%; viability, T/C (compound 0.01 µM): 104% and 98.8% and 103%
NS(=O)(=O)OCC1CC(n2ccc3c(NC4CCc5ccccc54)ncnc32)CC1O (centres undefined) | 2.34 µM and 3.42 µM and 1.64 µM | 99.2% and 99.8% and 104% | 113% and 118% and 105% | 114% and 130% and 106% | 91.4% and 97.8% and 66.8% | 35.2% and 53.6% and 26.8% | 9.55% and 14.4% and 8.49% | 
Nc1ccccc1NC(=O)c1ccc(CNC(=O)OCc2cccnc2)cc1 | 2.8 µM and 6.39 µM and 4.69 µM | 86.3% and 105% and 90.3% | 87.8% and 108% and 86.7% | 82.7% and 108% and 84.8% | 82.7% and 109% and 97.4% | 46.1% and 85.7% and 68.4% | 5.42% and 27.3% and 14.9% | 
Nc1ccn(C2OC(CO)C(O)C2(F)F)c(=O)n1 (centres undefined) | 0.055 µM and 0.212 µM and 0.29 µM | 73.2% and 108% and 116% | 24.6% and 89.1% and 98.4% | 14.1% and 28.8% and 44% | 15.1% and 17.2% and 34.1% | 11.1% and 14.4% and 27.2% | 7.1% and 9.36% and 17.2% | 
Nc1ncn(C2CC(O)C(CO)S2)c(=O)n1 (centres undefined) | > 0.3 µM |  |  |  |  |  |  | viability, T/C (compound 0.000949 µM): 108% and 96.3% and 97.9%; viability, T/C (compound 0.003 µM): 93.2% and 97.4% and 100%; viability, T/C (compound 0.00949 µM): 95.8% and 97.7% and 113%; viability, T/C (compound 0.03 µM): 82.9% and 103% and 95.7%; viability, T/C (compound 0.0949 µM): 86.4% and 98.1% and 91.1%; viability, T/C (compound 0.3 µM): 81.6% and 99.8% and 82.1%
